Assay results as given in ChEMBL document CHEMBL1153084, “Synthesis and HMG-CoA reductase inhibition of 2-cyclopropyl-4-thiophenyl-quinoline mevalonolactones” (Bioorg Med Chem, 2009).

Biological target: T1, 3-hydroxy-3-methylglutaryl-coenzyme A reductase (Homo sapiens, UniProt P04035)
T1 sequence (P04035 whole entry): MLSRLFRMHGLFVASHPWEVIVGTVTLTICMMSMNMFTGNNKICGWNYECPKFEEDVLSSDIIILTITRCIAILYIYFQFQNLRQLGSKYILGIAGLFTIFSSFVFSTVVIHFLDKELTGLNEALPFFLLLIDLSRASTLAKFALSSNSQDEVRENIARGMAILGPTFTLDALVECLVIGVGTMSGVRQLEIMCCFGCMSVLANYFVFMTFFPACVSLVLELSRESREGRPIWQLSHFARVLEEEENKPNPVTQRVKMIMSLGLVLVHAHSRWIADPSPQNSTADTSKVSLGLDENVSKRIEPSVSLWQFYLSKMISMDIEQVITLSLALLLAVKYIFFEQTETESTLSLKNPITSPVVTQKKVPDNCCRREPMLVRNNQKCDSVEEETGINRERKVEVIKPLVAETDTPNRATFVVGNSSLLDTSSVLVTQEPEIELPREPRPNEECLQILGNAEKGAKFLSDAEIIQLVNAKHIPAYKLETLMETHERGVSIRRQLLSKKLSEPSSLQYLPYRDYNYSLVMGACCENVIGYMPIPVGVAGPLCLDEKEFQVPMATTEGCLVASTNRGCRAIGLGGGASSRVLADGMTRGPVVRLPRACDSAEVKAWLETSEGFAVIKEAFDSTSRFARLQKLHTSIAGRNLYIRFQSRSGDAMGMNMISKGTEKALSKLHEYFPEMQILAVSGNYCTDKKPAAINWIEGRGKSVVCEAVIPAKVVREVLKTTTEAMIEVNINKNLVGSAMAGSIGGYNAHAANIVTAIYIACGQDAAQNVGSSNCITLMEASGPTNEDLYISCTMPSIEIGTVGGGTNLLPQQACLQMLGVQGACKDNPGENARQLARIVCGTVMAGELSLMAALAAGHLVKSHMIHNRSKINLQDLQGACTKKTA
Test: Inhibition of HMG CoA reductase by spectrophotometry

Compound	IC50 [µM]
COc1cccc(Sc2c(/C=C/[C@@H]3C[C@@H](O)CC(=O)O3)c(C3CC3)nc3cc(F)c(F)cc23)c1	360
O=C(O)C[C@H](O)C[C@H](O)/C=C/c1c(C2CC2)nc2ccccc2c1-c1ccc(F)cc1 [PITAVASTATIN CALCIUM]	8.9
COc1cccc(Sc2cc3nc(C4CC4)c(/C=C/[C@@H]4C[C@@H](O)CC(=O)O4)c(Sc4cccc(OC)c4)c3cc2F)c1	7.1
O=C1C[C@H](O)C[C@@H](/C=C/c2c(C3CC3)nc3cc(Sc4ccc(F)cc4)c(F)cc3c2Sc2ccc(F)cc2)O1	45.7
COc1cccc(Sc2c(/C=C/[C@@H]3C[C@@H](O)CC(=O)O3)c(C3CC3)nc3ccc(F)cc23)c1	5.61
COc1ccc2nc(C3CC3)c(/C=C/[C@@H]3C[C@@H](O)CC(=O)O3)c(Sc3ccc(F)cc3)c2c1	25.7
COc1ccc2nc(C3CC3)c(/C=C/[C@@H]3C[C@@H](O)CC(=O)O3)c(Sc3ccc(C(C)C)cc3)c2c1	41.3
O=C1C[C@H](O)C[C@@H](/C=C/c2c(C3CC3)nc3ccccc3c2Sc2ccc(F)cc2)O1	62.4
O=C1C[C@H](O)C[C@@H](/C=C/c2c(C3CC3)nc3ccc(F)cc3c2Sc2ccc(F)cc2)O1	6.93
CC(C)c1ccc(Sc2c(/C=C/[C@@H]3C[C@@H](O)CC(=O)O3)c(C3CC3)nc3ccccc23)cc1	11.3
CC(C)c1ccc(Sc2c(/C=C/[C@@H]3C[C@@H](O)CC(=O)O3)c(C3CC3)nc3cc(F)c(F)cc23)cc1	759
